17 molecules from US20260265246A1 (ICAHN SCHOOL OF MEDICINE AT MOUNT SINAI, priority 2021, published 2026) can be followed below.

Where two headings read alike, the source gives them in different places.

For test [1], the target named is T1, 5HT2A receptor (Homo sapiens, UniProt P28223). The experiment in a line: cell-based. More on the design: expressed in transfected cells; host or cells: HEK293T cells, transient co-transfection. The following applies: for Emax: HEK-293T.
The target in test [2] is T1, 5HT2A receptor. Kind of test: biochemical. It counts as binding. Further details: expressed in transfected cells; crude membranes. The following applies: 5HT2A Ki (nM).
Test [3] concerns the target T1, 5HT2A receptor. The experiment in a line: cell-based. Further details: expressed in transfected cells; host or cells: HEK293T cells, transient co-transfection. The following applies: for EC50: 5HT2A β-Arr EC50 (nM); for Emax: HEK-293T.
Setting [4] is: 5HTA Gq EC50 (nM), BRET2 Gαq dissociation, HEK293T.
The mark [5] stands for this setting: secondary binding assay, Cheng-Prusoff.
The mark [6] stands for this setting: BRET1 beta-arrestin2 recruitment, HEK293T.
[7] abbreviates: read-out: 5HTA Gq Emax (%), BRET2 Gαq dissociation, HEK293T, normalized to 5-HT.
[8] abbreviates: read-out: 5HT2A β-Arr Emax (%), BRET1 beta-arrestin2 recruitment, HEK293T, normalized to 5-HT.
Setting [9] is: 5HT2A Gq EC50 (nM), BRET2 Gαq dissociation, HEK293T cells.
Where [10] appears, read: BRET2 Gαq dissociation, HEK293T cells, normalized to 5-HT, read-out: 5HT2A Gq Emax (%).
The mark [11] stands for this setting: secondary radioligand binding, Ki from IC50 by Cheng-Prusoff.
Setting [12] is: BRET1 beta-arrestin2 recruitment, HEK293T cells.
Setting [13] is: BRET1 beta-arrestin2 recruitment, HEK293T cells, normalized to 5-HT, read-out: 5HT2A β-Arr Emax (%).
Where [14] appears, read: BRET2 Gαq dissociation, HEK293T cells, read-out: 5HT2A Gq EC50.
Setting [15] is: BRET2 Gαq dissociation, HEK293T, normalized to 5-HT, read-out: 5HTA Gq Emax (%).
[16] abbreviates: BRET1 beta-arrestin2 recruitment, HEK293T, normalized to 5-HT, read-out: 5HT2A β-Arr Emax (%).
[17] abbreviates: BRET2 Gαq dissociation, HEK293T, read-out: 5HTA Gq EC50.

T1 sequence (P28223 whole entry): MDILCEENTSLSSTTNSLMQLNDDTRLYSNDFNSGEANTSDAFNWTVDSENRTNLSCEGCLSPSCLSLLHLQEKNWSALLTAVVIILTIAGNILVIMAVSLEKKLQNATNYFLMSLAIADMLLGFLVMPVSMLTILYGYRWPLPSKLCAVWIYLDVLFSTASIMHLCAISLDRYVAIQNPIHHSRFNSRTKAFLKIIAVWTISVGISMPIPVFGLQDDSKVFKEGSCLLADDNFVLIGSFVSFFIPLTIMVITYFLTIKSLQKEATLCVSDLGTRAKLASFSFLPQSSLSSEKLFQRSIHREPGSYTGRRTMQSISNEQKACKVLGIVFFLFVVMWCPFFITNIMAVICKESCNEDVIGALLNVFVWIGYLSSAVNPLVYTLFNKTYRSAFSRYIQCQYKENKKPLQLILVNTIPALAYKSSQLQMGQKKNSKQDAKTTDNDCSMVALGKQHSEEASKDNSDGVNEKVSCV

The EC50 is the concentration that produces a half-maximal response. By Ki is commonly meant a dissociation constant, usually derived from enzyme kinetics or from competition with a known ligand. In the case of `Clc1cccc2c(C34CNCC3C4)n[nH]c12` (single isomer, unassigned) [Example 273, 3-(3-azabicyclo[3.1.0]hexan-1-yl)-7-chloro-1H-indazole], the EC50 turned out to be 226 nM at 5HT2A receptor [1] (setting [4]) and 1300 nM on 5HT2A receptor [3] (setting [6]). For the same molecule, at 5HT2A receptor [1] (BRET2 Gαq dissociation, HEK293T, normalized to 5-HT), the “5HTA Gq Emax (%)” value came to 81.0%. For the same molecule, at 5HT2A receptor [2] (setting [5]), the Ki turned out to be 6300 nM. The “5HT2A β-Arr Emax (%)” value at 5HT2A receptor [3] (BRET1 beta-arrestin2 recruitment, HEK293T, normalized to 5-HT) worked out at 20.73%.
Broadly, the Emax is the maximal effect, on the per cent scale that the assay sets. `Fc1ccc2c(C34CNCC3C4)c[nH]c2c1Cl` (stereo not shown) [Example 280, 3-(3-azabicyclo[3.1.0]hexan-1-yl)-7-chloro-6-fluoro-1H-indole]: the 50% effective concentration (EC50) at 5HT2A receptor [1] (setting [4]) came to 38.1 nM; on 5HT2A receptor [3] (setting [6]), 256 nM. Moreover, the Emax came out at 81.6% at 5HT2A receptor [1] (setting [7]) and 55.6% on 5HT2A receptor [3] (setting [8]). This molecule also came in with a Ki on 5HT2A receptor [2] (setting [5]) of 63.8 nM.
As to `Cc1cccc2c(C3=CCCN(Cc4ccccc4)C3)c[nH]c12` [Example 68, 3-(1-benzyl-1,2,5,6-tetrahydropyridin-3-yl)-7-methyl-1H-indole], the EC50 at 5HT2A receptor [1] (setting [9]) is 127 nM; at 5HT2A receptor [3] (setting [12]), 490 nM. For the same molecule, the Emax on 5HT2A receptor [1] (setting [10]) worked out at 40.2%; at 5HT2A receptor [3] (setting [13]) it was 42.4%. In addition, on 5HT2A receptor [2] (setting [11]), the Ki was determined as 115 nM.
Consider `CCc1[nH]c2ccccc2c1C1=CCCNC1` [Example 62, 2-ethyl-3-(1,2,5,6-tetrahydropyridin-3-yl)-1H-indole], for which the results for the EC50 at 5HT2A receptor [1] (setting [14]) and at 5HT2A receptor [3] (setting [12]) were 75.7 nM and 633 nM, respectively. The figures for the Emax on 5HT2A receptor [1] (setting [10]) and on 5HT2A receptor [3] (setting [13]) were 49.1% and 45.1%, respectively. The molecule also returned a Ki at 5HT2A receptor [2] (setting [11]) of 810 nM.
With `Fc1cccc2c(C34CCNCC3C4)n[nH]c12` (stereo not shown) [Example 229, 3-(3-azabicyclo[4.1.0]heptan-6-yl)-7-fluoro-1H-indazole], the results for the EC50 at 5HT2A receptor [1] (setting [4]) and on 5HT2A receptor [3] (setting [6]) were 236 nM and 2070 nM, respectively. Moreover, the Emax on 5HT2A receptor [1] (setting [15]) worked out at 83.7%; on 5HT2A receptor [3] (setting [16]) it was 90.2%. The same molecule gave an inhibitory constant (Ki) on 5HT2A receptor [2] (setting [5]) of 1900 nM.
Turning to `N#Cc1ccc2[nH]nc(C3=CCCNC3)c2c1` [Example 86, 3-(1,2,5,6-tetrahydropyridin-3-yl)-1H-indazole-5-carbonitrile], the EC50 on 5HT2A receptor [1] (setting [14]) amounted to 15.9 nM; at 5HT2A receptor [3] (setting [12]), 354 nM. In addition, the Emax at 5HT2A receptor [1] (setting [10]) was determined as 90.2%; at 5HT2A receptor [3] (setting [13]), 95.1%. This molecule came in with a Ki at 5HT2A receptor [2] (setting [11]) of 370 nM.
In the same order, the values of `CN1CCC=C(c2n[nH]c3c(Cl)cccc23)C1` [Example 106, 7-chloro-3-(1-methyl-1,2,5,6-tetrahydropyridin-3-yl)-1H-indazole] are 39.1 nM, 176 nM, 85.5%, 66.8% and 332 nM.
With `CCCN1CCC=C(c2n[nH]c3cccc(C#N)c23)C1` [Example 175, 3-(1-propyl-1,2,5,6-tetrahydropyridin-3-yl)-1H-indazole-4-carbonitrile], the EC50 on 5HT2A receptor [1] (setting [17]) came to 88.8 nM; at 5HT2A receptor [3] (setting [6]), 343 nM. Further, the results for the Emax at 5HT2A receptor [1] (setting [15]) and on 5HT2A receptor [3] (setting [16]) were 46.3% and 31.6%, respectively. Further, the affinity on 5HT2A receptor [2] (setting [5]) corresponds to a Ki of 8250 nM.
In the case of `Clc1cccc2c(C34CNCC3C4)c[nH]c12` (stereo not shown) [Example 270, 3-(3-azabicyclo[3.1.0]hexan-1-yl)-7-chloro-1H-indole], the EC50 on 5HT2A receptor [1] (setting [17]) was 29.8 nM; on 5HT2A receptor [3] (setting [6]), 822 nM. In addition, the Emax on 5HT2A receptor [1] (setting [15]) was 93.8%; at 5HT2A receptor [3] (setting [16]), 21.2%. The molecule also gave a Ki at 5HT2A receptor [2] (setting [5]) of 134 nM.
In the case of `Cc1cccc2[nH]cc(C3=CCCN(C)C3)c12` [Example 19, 4-methyl-3-(1-methyl-1,2,5,6-tetrahydropyridin-3-yl)-1H-indole], the EC50 at 5HT2A receptor [1] (setting [14]) came to 9 nM; on 5HT2A receptor [3] (setting [12]), 102 nM. Besides, the Emax came to 75.9% at 5HT2A receptor [1] (setting [10]) and 40.4% on 5HT2A receptor [3] (setting [13]). The affinity on 5HT2A receptor [2] (setting [11]), expressed as Ki, was 136 nM.
On to `COc1cnc2[nH]cc(C3=CCCN(C)C3)c2c1` [Example 6, 5-methoxy-3-(1-methyl-1,2,5,6-tetrahydropyridin-3-yl)-1H-pyrrolo[2,3-b]pyridine], for which the EC50 was determined as 44.1 nM at 5HT2A receptor [1] (setting [9]) and 792 nM at 5HT2A receptor [3] (setting [12]). Moreover, the figures for the Emax on 5HT2A receptor [1] (setting [10]) and at 5HT2A receptor [3] (setting [13]) were 65.9% and 33.4%, respectively. This molecule also displayed a Ki at 5HT2A receptor [2] (setting [11]) of 695 nM.
As for `C=CCN1CCC=C(c2n[nH]c3c(Cl)cccc23)C1` [Example 124, 3-(1-allyl-1,2,5,6-tetrahydropyridin-3-yl)-7-chloro-1H-indazole], the EC50 at 5HT2A receptor [1] (setting [14]) came to 49.6 nM; on 5HT2A receptor [3] (setting [12]), 1010 nM. In addition, the Emax on 5HT2A receptor [1] (setting [10]) turned out to be 64.9%; on 5HT2A receptor [3] (setting [13]), 35.3%. Besides, the Ki at 5HT2A receptor [2] (setting [11]) was 159 nM.
Consider `Cc1cccc2c(C34CNCC3C4)c[nH]c12` (stereo not shown) [Example 272, 3-(3-azabicyclo[3.1.0]hexan-1-yl)-7-methyl-1H-indole], for which the EC50 on 5HT2A receptor [1] (setting [4]) was 100 nM; on 5HT2A receptor [3] (setting [6]) it was 1500 nM. Also, the Emax amounted to 89.5% at 5HT2A receptor [1] (setting [15]) and 38% at 5HT2A receptor [3] (setting [16]). On 5HT2A receptor [2] (setting [5]), this molecule displayed a Ki of 890 nM.
With `CCCN1CCC=C(c2c[nH]c3c(Cl)c(F)ccc23)C1` [Example 160], the values for the EC50 on 5HT2A receptor [1] (setting [4]) and at 5HT2A receptor [3] (setting [6]) were 74.5 nM and 144 nM, respectively. For the same molecule, the Emax at 5HT2A receptor [1] (setting [7]) was determined as 84.1%; at 5HT2A receptor [3] (setting [8]) it was 30.9%. Also, the Ki on 5HT2A receptor [2] (setting [5]) worked out at 151 nM.
`CCc1cccc2c(C3=CCCN(C)C3)n[nH]c12` [Example 122, 7-ethyl-3-(1-methyl-1,2,5,6-tetrahydropyridin-3-yl)-1H-indazole]: the EC50 at 5HT2A receptor [1] (setting [9]) was 151 nM; on 5HT2A receptor [3] (setting [12]), 247 nM. Also, the figures for the Emax on 5HT2A receptor [1] (setting [10]) and on 5HT2A receptor [3] (setting [13]) were 102% and 42.9%, respectively. On 5HT2A receptor [2] (setting [11]), this molecule returned a Ki of 816 nM.
For the molecule `OCCN1CCC=C(c2n[nH]c3c(Cl)cccc23)C1` [Example 168, 2-(5-(7-chloro-1H-indazol-3-yl)-3,6-dihydropyridin-1(2H)-yl)ethan-1-ol], the EC50 at 5HT2A receptor [1] (setting [4]) amounted to 183 nM; at 5HT2A receptor [3] (setting [6]), 1050 nM. Besides, the Emax on 5HT2A receptor [1] (setting [15]) is 68.2%; at 5HT2A receptor [3] (setting [16]), 41.6%. The molecule also displayed an inhibitory constant (Ki) at 5HT2A receptor [2] (setting [5]) of 8640 nM.
Regarding `[2H]C([2H])([2H])N1CCC=C(c2n[nH]c3c(Cl)cccc23)C1` [Example 150, 7-chloro-3-(1-(methyl-d3)-1,2,5,6-tetrahydropyridin-3-yl)-1H-indazole], the EC50 on 5HT2A receptor [1] (setting [4]) was determined as 13.3 nM; at 5HT2A receptor [3] (setting [6]), 29.9 nM. The values for the maximum response (Emax) at 5HT2A receptor [1] (setting [7]) and on 5HT2A receptor [3] (setting [8]) were 95.3% and 60.9%, respectively. The molecule also gave a Ki at 5HT2A receptor [2] (setting [5]) of 842 nM.
